Literature values in patent US20260157999A1, “[…] OF ALKALOID COMPOUNDS AND […] USES THEREOF” (Sensorium Therapeutics, Inc., priority 2021, published 2026).

Conditions: described pharmacokinetics, rapid metabolism and excretion

Structure (SMILES): COc1ccc(C23CCC(=O)CC2N(C)CC3)cc1OC (stereo not shown) [Mesembrine, 3a-(3,4-dimethoxyphenyl)-octahydro-1-methyl-6H-indol-6-one]
- half-life in plasma: less than 2 hours
